Data set [1] in a line: Index of bioavailability (% Relative Activity) from plasma TT time course, oral vs i.v. It is filed as in vivo. The note with it: p.o. dose per legend (20, 60 or 50 mg/kg). As for the experimental part: Parke Davis) at 37° C. […] Assays are done in duplicate and averaged. […] Each sample population represented alternating sequential time points.
The subject of data set [2] is human plasma. The experiment in a line: Human plasma anticoagulation, prothrombin time (PT). It is filed as biochemical. The note with it: concentration required to double PT, linear extrapolation. The procedure, abridged: (§1)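 Compounds added across a wide concentration range to plasma; PT measured with Thromboplastin-C, APTT after 120 s Actin incubation then 0.02 M CaCl2, TT with bovine thrombin (10 NIH units/mL). Clotting-time doubling concentrations estimated by linear extrapolation.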

Data set [3] concerns human plasma. The experiment in a line: Human plasma anticoagulation, activated partial thromboplastin time (APTT). It is filed as biochemical. The conditions noted are these: concentration required to double APTT, linear extrapolation. The procedure, abridged:
as §1

Data set [4] concerns human plasma. The experiment in a line: Human plasma anticoagulation, thrombin time (TT). It is filed as biochemical. The conditions noted are these: concentration required to double thrombin time, linear extrapolation. The procedure, abridged:
as §1

Data set [5] addresses Human Thrombin (Homo sapiens, UniProt P00734). The experiment in a line: Inhibition of thrombin amidase activity (Kass), chromogenic substrate. It is filed as biochemical. The conditions noted are these: mean Kass over a range of concentrations; substrate N-benzoyl-Phe-Val-Arg-p-nitroanilide.

Where a name gives a salt, the structure may show the parent alone.

Take `CCS(=O)(=O)N[C@H](Cc1ccccc1)C(=O)N1[C@H](C(=O)NCc2ccc(C(=N)N)cc2)C[C@@H]2CCCC[C@@H]21` (relative stereo) [Example 45, hydrochloride]: the “% oral/i.v. activity (Rat), screening not completed” value in data set [1] is “NC^2”. In addition, in data set [2], the “Human Plasma Anticoagulation 2x Clotting time PT” value was 330 ng/mL. Besides, the “Human Plasma Anticoagulation 2x Clotting time APTT” value in data set [3] is recorded as 200 ng/mL. In addition, the “Human Plasma Anticoagulation 2x Clotting time TT” value in data set [4] is 8 ng/mL.

`N=C(N)c1ccc(CNC(=O)[C@@H]2C[C@@H]3CCCC[C@@H]3N2C(=O)[C@@H](CC2CCCCC2)NCC(=O)O)cc1` (relative stereo) [Example 49, (S-cis)-N-[[4-(aminoiminomethyl)phenyl]methyl]-1-[N-(carboxymethyl)-D-cyclohexylalanyl-1H-indole-2-carboxamide hydrochloride]: in data set [1], the “% oral/i.v. activity (Rat), screening not completed” value is reported as “NC^2”. Also, the “Human Plasma Anticoagulation 2x Clotting time TT” value in data set [4] is 5 ng/mL.

Regarding `CCS(=O)(=O)N[C@H](Cc1ccccc1)C(=O)N1CCC[C@H]1C(=O)NCCc1ccc(C(=N)N)cc1` [Example 26, EtSO2 -D-Phe-Pro-p-NHCH2 CH2 -C6 H4 C(=NH)NH2.HCl], the “% oral/i.v. activity (Rat), screening not completed” value in data set [1] is “NC^1”. For the same compound, in data set [2], the “Human Plasma Anticoagulation 2x Clotting time PT” value is 750 ng/mL. The “Human Plasma Anticoagulation 2x Clotting time APTT” value in data set [3] is given as 870 ng/mL. The “Human Plasma Anticoagulation 2x Clotting time TT” value in data set [4] is 37 ng/mL.

Turning to `N=C(N)c1ccc(CNC(=O)[C@@H]2CCCN2C(=O)[C@@H](CC2CCCCC2)NCC(=O)O)c(F)c1` [Example 71, N-(carboxymethyl)-D-cyclohexylalanyl-N-[[4-(aminoiminomethyl)-2-fluorophenyl]methyl]-L-prolinamide hydrochloride], the “% oral/i.v. activity (Rat), screening not completed” value in data set [1] is recorded as “NC^1”. For the same compound, in data set [2], the “Human Plasma Anticoagulation 2x Clotting time PT” value is listed as 150 ng/mL. The “Human Plasma Anticoagulation 2x Clotting time APTT” value in data set [3] was 89 ng/mL. Further, the “Human Plasma Anticoagulation 2x Clotting time TT” value in data set [4] is reported as 1 ng/mL.

Consider `N=C(N)c1cc(F)c(CNC(=O)[C@@H]2CCCN2C(=O)[C@@H](CC2CCCCC2)NCC(=O)O)c(F)c1` [Example 72, N-(carboxymethyl)-D-cyclohexylalanyl-N-[[4-(aminoiminomethyl-2,6-difluorophenyl]methyl]-L-prolinamide hydrochloride], for which, in data set [1], the “% oral/i.v. activity (Rat), screening not completed” value is recorded as “NC^1”. In addition, the “Human Plasma Anticoagulation 2x Clotting time PT” value in data set [2] is reported as 160 ng/mL. In addition, in data set [3], the “Human Plasma Anticoagulation 2x Clotting time APTT” value is recorded as 160 ng/mL. Besides, in data set [4], the “Human Plasma Anticoagulation 2x Clotting time TT” value was 1 ng/mL.

On to `Cl.Nc1ccc(CNC(=O)[C@@H]2CCCN2C(=O)[C@@H](CC2CCCCC2)NCC(=O)O)cn1` [Example 74, HO2 CCH2 -D-Cha-Pro-5-NHCH2 -2-aminopyridine.HCl], for which the “Human Plasma Anticoagulation 2x Clotting time PT” value in data set [2] is 350 ng/mL. In addition, in data set [3], the “Human Plasma Anticoagulation 2x Clotting time APTT” value is reported as 420 ng/mL. In addition, the “Kass Human Thrombin” value in data set [5] is 29 × 10^6 (L/mole). Besides, the “Human Plasma Anticoagulation 2x Clotting time TT” value in data set [4] is 20 ng/mL.

`Cl.Nc1cc(CCNC(=O)[C@@H]2CCCN2C(=O)[C@@H](CC2CCCCC2)NCC(=O)O)ccn1` [Example 76, HO2 CCH2 -D-Cha-Pro-4-NHCH2 CH2 -2-aminopyridine.HCl]: the “Human Plasma Anticoagulation 2x Clotting time PT” value in data set [2] is on record as 560 ng/mL. In addition, in data set [3], the “Human Plasma Anticoagulation 2x Clotting time APTT” value is recorded as 490 ng/mL. Besides, the “Kass Human Thrombin” value in data set [5] is 12 × 10^6 (L/mole). Besides, in data set [4], the “Human Plasma Anticoagulation 2x Clotting time TT” value is given as 29 ng/mL.

Take `Nc1ccc(CNC(=O)[C@@H]2CCCN2C(=O)[C@@H](CC2CCCCC2)NCC(=O)O)cc1F` [Example 77, HO2 CCH2 -D-Cha-pro-4-NHCH2-2-F-aniline.HCl]: the “Human Plasma Anticoagulation 2x Clotting time PT” value in data set [2] is on record as 890 ng/mL. The “Human Plasma Anticoagulation 2x Clotting time APTT” value in data set [3] is 1,600 ng/mL. Further, in data set [5], the “Kass Human Thrombin” value is 11 × 10^6 (L/mole). In data set [4], the “Human Plasma Anticoagulation 2x Clotting time TT” value is on record as 53 ng/mL.

Turning to `NCc1ccc(CNC(=O)[C@@H]2CCCN2C(=O)[C@@H](CC2CCCCC2)NCC(=O)O)cc1` [Example 78, HO2 CCH2 -D-Cha-Pro-4-NHCH2 C6 H4 CH2 NH2.HCl], the “Human Plasma Anticoagulation 2x Clotting time PT” value in data set [2] is reported as 760 ng/mL. Further, the “Human Plasma Anticoagulation 2x Clotting time APTT” value in data set [3] was 430 ng/mL. In addition, in data set [5], the “Kass Human Thrombin” value is given as 11 × 10^6 (L/mole). The “Human Plasma Anticoagulation 2x Clotting time TT” value in data set [4] is 46 ng/mL.

In the case of `CCS(=O)(=O)N[C@H](CC1CCCCC1)C(=O)N1CCC[C@H]1C(=O)NCc1ccc(C(=N)N)cc1` [Example 80, N-(ethylsulfonyl)-D-cyclohexylalanyl-N-[[4-(aminoiminomethyl)phenyl]methyl]-L-prolinamide hydrochloride], the “Human Plasma Anticoagulation 2x Clotting time PT” value in data set [2] is 130 ng/mL. For the same compound, the “Human Plasma Anticoagulation 2x Clotting time APTT” value in data set [3] is reported as 40 ng/mL. In data set [5], the “Kass Human Thrombin” value is 1,700 × 10^6 (L/mole). For the same compound, the “Human Plasma Anticoagulation 2x Clotting time TT” value in data set [4] is given as 4 ng/mL.

With `CCS(=O)(=O)N[C@H](CC1CCCCC1)C(=O)N1CCC[C@H]1C(=O)NCc1ccc(N)cc1F.Cl` [Example 82, EtSO2 -D-Cha-Pro-4-NHCH2 -3-F-C6 H3 NH2.HCl], the “Human Plasma Anticoagulation 2x Clotting time PT” value in data set [2] was 3,000 ng/mL. In addition, the “Human Plasma Anticoagulation 2x Clotting time APTT” value in data set [3] is given as 3,800 ng/mL. For the same compound, the “Kass Human Thrombin” value in data set [5] is 5.0 × 10^6 (L/mole). Further, the “Human Plasma Anticoagulation 2x Clotting time TT” value in data set [4] is on record as 130 ng/mL.

Regarding `CCS(=O)(=O)N[C@H](CC1CCCCC1)C(=O)N1CCC[C@H]1C(=O)NCc1ccnc(N)c1.Cl` [Example 83, EtSO2 -D-Cha-Pro-4-NHCH2 -2-aminopyridine.HCl], in data set [2], the “Human Plasma Anticoagulation 2x Clotting time PT” value is 1,300 ng/mL. The “Human Plasma Anticoagulation 2x Clotting time APTT” value in data set [3] was 1,000 ng/mL. In data set [5], the “Kass Human Thrombin” value is on record as 2.4 × 10^6 (L/mole). For the same compound, in data set [4], the “Human Plasma Anticoagulation 2x Clotting time TT” value is given as 91 ng/mL.

`CCS(=O)(=O)N[C@H](CC1CCCCC1)C(=O)N1CCC[C@H]1C(=O)NCc1ccc(N)nc1.Cl` [Example 84, EtSO2 -D-Cha-Pro-5-NHCH2 -2-aminopyridine.HCl]: the “Human Plasma Anticoagulation 2x Clotting time PT” value in data set [2] is 1,900 ng/mL. Further, the “Human Plasma Anticoagulation 2x Clotting time APTT” value in data set [3] was 1,500 ng/mL. For the same compound, the “Kass Human Thrombin” value in data set [5] was 2.9 × 10^6 (L/mole). Besides, in data set [4], the “Human Plasma Anticoagulation 2x Clotting time TT” value is given as 110 ng/mL.

In the case of `N=C(N)c1ccc(CNC(=O)[C@@H]2CCCN2C(=O)[C@H](NCC(=O)O)C2CCCCC2)cc1` [Example 86, N-(carboxymethyl)-D-cyclohexylglycyl-N-[[4-(aminoiminomethyl)phenyl]methyl]-L-prolinamide hydrochloride], in data set [2], the “Human Plasma Anticoagulation 2x Clotting time PT” value is 180 ng/mL. The “Human Plasma Anticoagulation 2x Clotting time APTT” value in data set [3] is 81 ng/mL. Further, the “Kass Human Thrombin” value in data set [5] is listed as 200 × 10^6 (L/mole). Further, the “Human Plasma Anticoagulation 2x Clotting time TT” value in data set [4] is reported as 4 ng/mL.

For `Cl.N=C(N)c1ccc(CNC(=O)CN(CCc2ccccc2)C(=O)CNCC(=O)O)cc1` [Example 89, HOOCCH2 -Gly-N-C6 H5 CH2 CH2 Gly-p-NHCH2 C6 H4 C(NH)NH2.HCl], the “Human Plasma Anticoagulation 2x Clotting time PT” value in data set [2] is recorded as 37,000 ng/mL. In data set [3], the “Human Plasma Anticoagulation 2x Clotting time APTT” value is 51,000 ng/mL. Besides, in data set [5], the “Kass Human Thrombin” value was 0.14 × 10^6 (L/mole). The “Human Plasma Anticoagulation 2x Clotting time TT” value in data set [4] is listed as 570 ng/mL.

Regarding “HOOCCH2 -D-Phe-Pro(4-cis-isoamyl)-p-NHCH2 C6 H4 C(NH)NH2.HCl [Example 50]”, the “Human Plasma Anticoagulation 2x Clotting time PT” value in data set [2] is recorded as 420 ng/mL. The “Human Plasma Anticoagulation 2x Clotting time APTT” value in data set [3] is 460 ng/mL. Moreover, in data set [5], the “Kass Human Thrombin” value was 40 × 10^6 (L/mole). In addition, in data set [4], the “Human Plasma Anticoagulation 2x Clotting time TT” value is 35 ng/mL.

The values are drawn from patent US5710130A, “Antithrombotic agents” (Eli Lilly and Company, priority 1995, dated 1998).
